Test [1] deals with T1, recombinant SARS-CoV-2 3CLpro (Severe acute respiratory syndrome coronavirus 2, UniProt P0DTD1). Description: biochemical.
Test [2] has as its target T1, recombinant SARS-CoV-2 3CLpro. Description: cell-based.
For test [3], the system named is HCoV-229E. Description: microbe, parasite or virus in culture. The format is cell-based. The settings on record: Human coronavirus 229E, Caco-2, read-out: HCoV-229E EC50.
Test [4] relates to SARS-CoV-2 B.1.617.2 Delta. In words: microbe, parasite or virus in culture. The format is cell-based. The settings on record: Severe acute respiratory syndrome coronavirus 2, Calu-3, read-out: Delta EC50.
Test [5] has as its system SARS-CoV-2 Omicron BA.5. In words: microbe, parasite or virus in culture. The format is cell-based. The settings on record: Severe acute respiratory syndrome coronavirus 2, Calu-3, read-out: BA.5 EC50 Calu-3, nucleocapsid, Calu-3, nucleocapsid staining.
Test [6] concerns SARS-CoV-2 Omicron BQ.1.1. In words: microbe, parasite or virus in culture. The format is cell-based. The settings on record: Severe acute respiratory syndrome coronavirus 2, Calu-3, read-out: BQ.1.1 EC50 Calu-3, nucleocapsid.
For test [7], the system named is SARS-CoV-2 Omicron XBB.1.5. Description: microbe, parasite or virus in culture. The format is cell-based. The note with it: Severe acute respiratory syndrome coronavirus 2, Caco-2, read-out: XBB.1.5 EC50, nucleocapsid.

Our source for the IC50 and EC50 values is PMC10453993 (Emerging Microbes & Infections, 2023).

With `CSc1ccc(N(Cc2cc(Cl)cs2)C(=O)Cc2cncc3ccccc23)cc1` [C4, N-((4-chlorothiophen-2-yl)methyl)-2-(isoquinolin-4-yl)-N-(4-(methylthio)phenyl)acetamide], the IC50 (as a rule, the concentration that inhibits the measured activity by half) in test [1] was 2300 ± 200 nM; in test [2] it was 600 ± 300 nM. Further, in test [3], the EC50 was determined as 7.9 ± 3.8 µM.
Take `CN(C)c1ccc(N(Cc2cccc(Br)c2)C(=O)Cc2cncc3ccccc23)cc1` [C5e, N-(3-bromobenzyl)-N-(4-(dimethylamino)phenyl)-2-(isoquinolin-4-yl)acetamide]: the IC50 in test [1] stood at 1400 ± 800 nM.
Take `CN(C)c1ccc(N(Cc2cc(Cl)cs2)C(=O)Cc2cncc3ccccc23)cc1` [C5, N-((4-chlorothiophen-2-yl)methyl)-N-(4-(dimethylamino)phenyl)-2-(isoquinolin-4-yl)acetamide]: the half-maximal inhibitory concentration (IC50) in test [1] is 900 ± 600 nM. Moreover, the EC50 in test [4] was determined as 3200 nM; in test [5] it was 100 nM; in test [6], 300 nM; in test [7] it was 100 nM; in test [3], 4.2 ± 0.7 µM.
Regarding `CC(C)(C)[C@H](NC(=O)C(F)(F)F)C(=O)N1C[C@H]2[C@@H]([C@H]1C(=O)N[C@H](C#N)C[C@@H]1CCNC1=O)C2(C)C` [C7, Nirmatrelvir, reference compound], the EC50 is 1300 nM in test [4]; 400 nM in test [5]; 400 nM in test [6]; 300 nM in test [7]; 2 ± 1.2 µM in test [3].
As for `CC(C)(C)c1ccc(N(Cc2cc(Cl)cs2)C(=O)Cc2cncc3ccccc23)cc1` [C3, N-(4-(tert-butyl)phenyl)-N-((4-chlorothiophen-2-yl)methyl)-2-(isoquinolin-4-yl)acetamide], the IC50 in test [1] came to 5000 ± 300 nM; in test [2], 1200 ± 1000 nM. Also, the EC50 in test [3] was determined as 9.6 ± 1 µM.
As to `C=CCC(c1cc(Cl)cs1)N(C(=O)Cc1cncc2ccccc12)c1ccc(N(C)C)cc1` (stereo not drawn) [C5c, N-(1-(4-chlorothiophen-2-yl)but-3-en-1-yl)-N-(4-(dimethylamino)phenyl)-2-(isoquinolin-4-yl)acetamide], in test [1], the IC50 was 1400 ± 800 nM.
On the same count and under the same terms, under `COc1ccc(Cl)cc1CN(C(=O)Cc1cncc2ccccc12)c1ccc(N(C)C)cc1` [C5d, N-(5-chloro-2-methoxybenzyl)-N-(4-(dimethylamino)phenyl)-2-(isoquinolin-4-yl)acetamide] stands 2200 ± 700 nM.
As for `CN(C)c1ccc(N(Cc2cc(Cl)cs2)C(=O)Cc2cncc3c(O)cccc23)cc1` [C5b, N-((4-chlorothiophen-2-yl)methyl)-N-(4-(dimethylamino)phenyl)-2-(8-hydroxyisoquinolin-4-yl)acetamide], the IC50 in test [1] was determined as 4500 ± 1000 nM.
In the case of `COc1ccc(N(Cc2cc(Cl)cs2)C(=O)Cc2cncc3ccccc23)cc1` [C2, N-((4-chlorothiophen-2-yl)methyl)-2-(isoquinolin-4-yl)-N-(4-methoxyphenyl)acetamide], the 50% inhibitory concentration (IC50) in test [1] is 8500 ± 1700 nM; in test [2] it was 600 ± 200 nM. In addition, the EC50 in test [3] turned out to be 5.6 ± 1.4 µM.
